For 8 molecules, IC50 and remaining activity results are on record in paper PMC7356228, “Alvaxanthone, a Thymidylate Synthase Inhibitor with Nematocidal and Tumoricidal Activities” (Molecules, 2020).

Read-outs that look alike come from different tables or passages of the source.

What all share (assay): Inhibition of TS-catalyzed reaction (tritium release from [5-3H]dUMP)
In one experiment the target is T1, CeTS (Caenorhabditis elegans, UniProt Q9Y052).
T1 sequence (Q9Y052 1-315): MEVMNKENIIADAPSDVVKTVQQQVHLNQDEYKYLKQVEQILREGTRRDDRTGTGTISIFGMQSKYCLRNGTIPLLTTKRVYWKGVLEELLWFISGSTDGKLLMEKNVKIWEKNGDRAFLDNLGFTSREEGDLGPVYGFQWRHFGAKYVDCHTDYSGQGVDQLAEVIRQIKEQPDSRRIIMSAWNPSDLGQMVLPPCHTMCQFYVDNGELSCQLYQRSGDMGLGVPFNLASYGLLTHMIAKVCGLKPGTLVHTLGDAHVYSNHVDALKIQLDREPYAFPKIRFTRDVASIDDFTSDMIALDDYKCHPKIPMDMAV
The class given is biochemical, C. elegans. An excerpt:
(§1) The recombinant human, rat, mouse, T. spiralis and C. elegans TS proteins were produced, purified and separated into phosphorylated and non-phosphorylated fraction, as previously described. TS activity was monitored, following tritium release from [5-^3H]dUMP, and its inhibition studied as earlier reported.

Another experiment concerns the target TsTS (Trichinella spiralis, UniProt Q9NDD3). The class given is biochemical, T. spiralis. The conditions noted are these: 20 µM dUMP, 250 µM meTHF; for IC50: IC50 Assessment; for remaining activity at 1000 µM: compound 1000 µM.
Text: as §1

In another experiment the target is T2, mTS (Mus musculus, UniProt P07607).
T2 construct: made in house
The class given is biochemical. As to conditions: 20 µM dUMP, 250 µM meTHF; for remaining activity at 100 µM: compound 100 µM; for remaining activity at 100 µM / remaining activity at 1000 µM: read-out: % Remaining Activity; for remaining activity at 1000 µM: compound 1000 µM.
Text: as §1

The next experiment concerns the target T3, hTS (Homo sapiens, UniProt P04818).
T3 construct: made in house
The class given is biochemical. As to conditions: 20 µM dUMP, 250 µM meTHF; for remaining activity at 100 µM: compound 100 µM; for remaining activity at 100 µM / remaining activity at 1000 µM: read-out: % Remaining Activity; for remaining activity at 1000 µM: compound 1000 µM.
Text: as §1

Where [1] appears, read: 20 µM dUMP, 250 µM meTHF, read-out: IC50 Assessment.
Setting [2] is: compound 100 µM, 20 µM dUMP, 250 µM meTHF, read-out: % Remaining Activity.
Setting [3] is: compound 1000 µM, 20 µM dUMP, 250 µM meTHF, read-out: % Remaining Activity.

T2 sequence (P07607 whole entry): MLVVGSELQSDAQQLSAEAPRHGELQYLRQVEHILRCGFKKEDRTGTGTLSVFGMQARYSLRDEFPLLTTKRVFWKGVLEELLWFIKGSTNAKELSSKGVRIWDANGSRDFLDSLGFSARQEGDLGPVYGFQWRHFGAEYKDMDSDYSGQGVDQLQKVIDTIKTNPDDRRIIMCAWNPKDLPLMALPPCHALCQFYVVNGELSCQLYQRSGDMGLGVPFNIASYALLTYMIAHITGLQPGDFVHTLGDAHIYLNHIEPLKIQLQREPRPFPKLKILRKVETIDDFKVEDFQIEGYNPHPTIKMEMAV
T3 sequence (P04818 whole entry): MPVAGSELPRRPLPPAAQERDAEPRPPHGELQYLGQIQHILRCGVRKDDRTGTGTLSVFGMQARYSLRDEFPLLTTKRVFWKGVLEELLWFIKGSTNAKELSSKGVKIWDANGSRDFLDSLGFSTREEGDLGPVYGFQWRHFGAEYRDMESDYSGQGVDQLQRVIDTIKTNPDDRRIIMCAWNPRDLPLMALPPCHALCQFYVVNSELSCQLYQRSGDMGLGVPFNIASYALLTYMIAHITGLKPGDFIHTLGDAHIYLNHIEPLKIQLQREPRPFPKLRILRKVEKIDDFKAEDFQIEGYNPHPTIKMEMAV
Chain of TsTS (Q9NDD3 entry or part of it): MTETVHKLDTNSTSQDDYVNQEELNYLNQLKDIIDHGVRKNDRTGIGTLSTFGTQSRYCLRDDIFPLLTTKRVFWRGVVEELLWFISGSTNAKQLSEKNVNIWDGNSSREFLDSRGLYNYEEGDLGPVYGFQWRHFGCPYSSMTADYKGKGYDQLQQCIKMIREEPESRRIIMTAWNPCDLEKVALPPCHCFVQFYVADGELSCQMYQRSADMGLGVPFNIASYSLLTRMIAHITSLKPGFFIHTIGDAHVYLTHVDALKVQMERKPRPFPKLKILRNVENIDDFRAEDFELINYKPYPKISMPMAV

On to `CC(C)=CCc1c(O)ccc2c1OC(c1ccccc1)CC2=O` (racemic) [(±)-7-Hydro-xy-8-C-prenyl flavanone], for which the IC50 at CeTS (setting [1]) and on TsTS was more than 0.1 mM throughout. For the same molecule, the remaining activity at 100 µM at CeTS (setting [2]) was 65%; on TsTS (compound 100 µM), 90%; at mTS it was 71%; on hTS, 74%. Also, the remaining activity at 1000 µM on CeTS (setting [3]) stood at 3%; on TsTS, 25%; at mTS, 2%; on hTS, 7%.
Regarding `CC1(C)CCc2cc3c(cc2O1)OC(c1ccccc1)CC3=O` (stereo not drawn) [6-Chromane-O-7-flavanone (11), 6-Chromane-O-7-flavanone], the remaining activity at 10 µM stood at 100% at CeTS (compound 10 µM, 20 µM dUMP, 250 µM meTHF) and 100% at hTS (compound 10 µM). Also, the figures for the remaining activity at 100 µM at CeTS (setting [2]), at mTS and at hTS were 24%, 91% and 37%, respectively. The same molecule gave an IC50 on TsTS of more than 1 mM. For the same molecule, the remaining activity at 1000 µM at TsTS amounted to 85%; on mTS, 10%.
In the case of `O=C(OCC1=C[C@@H](O)[C@@H]2C=CO[C@@H](O[C@@H]3O[C@H](CO)[C@@H](O)[C@H](O)[C@H]3O)[C@H]12)c1ccc(O)cc1` [Agnuside (8), Agnuside], the IC50 at CeTS (setting [1]) is more than 0.1 mM; against TsTS, more than 1 mM; on mTS (read-out: IC50 Assessment), more than 1 mM. Besides, the remaining activity at 100 µM turned out to be 100% at CeTS (setting [2]) and 90% on hTS. The remaining activity at 1000 µM stood at 36% at CeTS (setting [3]), 63% on TsTS, 72% at mTS and 47% at hTS.
Regarding `COc1c(O)cc2oc(-c3ccccc3)c(O)c(=O)c2c1O` [Alnusin (12), Alnusin], on CeTS (setting [1]), the IC50 was more than 1 mM. Moreover, the remaining activity at 1000 µM at CeTS (setting [3]) was 80%; at TsTS, more than 100%; on mTS, more than 100%; on hTS it was 30%. The remaining activity at 100 µM on hTS is 85%.
`O=C1c2c(O)cccc2C([C@@H]2O[C@H](CO)[C@@H](O)[C@H](O)[C@H]2O)c2cc(CO)cc(O)c21` (stereo partly drawn) [Aloin (2), Aloin]: the IC50 was more than 0.1 mM at CeTS (setting [1]), more than 1 mM on TsTS and more than 1 mM on mTS (read-out: IC50 Assessment). The figures for the remaining activity at 100 µM on CeTS (setting [2]) and on hTS were 83% and 94%, respectively. Further, the remaining activity at 1000 µM turned out to be 36% on CeTS (setting [3]), 93% on TsTS, 95% on mTS and 49% at hTS.
As to `COC(=O)/C=C/C(C)=C\C=C\C(C)=C\C=C\C=C(C)\C=C\C=C(C)\C=C\C(=O)O` [Bixin (6), Bixin], the remaining activity at 67 µM at CeTS (compound 67 µM, 20 µM dUMP, 250 µM meTHF) is 93%; at TsTS (compound 67 µM), 76%. Besides, the remaining activity at 667 µM was 46% at CeTS (compound 667 µM, 20 µM dUMP, 250 µM meTHF); 47% at TsTS (compound 667 µM); 73% at mTS (compound 667 µM); more than 100% at hTS (compound 667 µM (highest obtained concentration)). The IC50 at mTS (read-out: IC50 Assessment) is more than 0.667 mM.
As for `O=C(/C=C/c1ccc(O)c(O)c1)O[C@@H]1C[C@](O)(C(=O)O)C[C@@H](O)[C@H]1O` [Chlorogenic acid (3), Chlorogenic acid], the IC50 on CeTS (setting [1]), against TsTS, on mTS (read-out: IC50 Assessment) and at hTS (read-out: IC50 Assessment) was more than 1 mM throughout. In addition, the remaining activity at 1000 µM was 82% on CeTS (setting [3]), 94% at TsTS, 83% on mTS and 76% on hTS.
`CC12CCC3C(C1)c1c(cc(O)c(C(=O)c4ccccc4)c1OC3(C)C)O2` (stereo not drawn) [Clusiacitran A (9), Clusiacitran A]: the remaining activity at 100 µM was 88% on CeTS and 89% at hTS. Moreover, the remaining activity at 1000 µM at CeTS came to 44%; at TsTS it was 95%; on mTS, 62%; on hTS, 47%. Further, the IC50 was more than 0.1 mM on CeTS (IC50 Assessment, 20 µM dUMP, 250 µM meTHF); more than 1 mM against TsTS; more than 1 mM on mTS (IC50 Assessment).
